# From US5559115A, “Oncogene function-inhibitory agent, method for inhibiting oncogene function, and treatment of cancer” (Terumo Kabushiki Kaisha, priority 1993, dated 1996)
# “Also recorded” adds a separate entry of the source.
# Assays:
# [1] = tested on: K-ras NRK cells; experiment: Propagation inhibitory effect on K-ras NRK cells; format: cell-based; details: Rattus norvegicus, 72 h, 3 days, read-out: IC50, cell propagation
# Experimental: (§1) Next, cells of different types were inoculated in wells of 12 wells plastic plate (Costar 3521, manufactured by Costar) at 2.0×10^4 /DMEM 1 ml/well, and the plate was incubated in an incubator of 5% CO2 for one day. III-121C was added to the thus incubated cells to different concentrations and incubation was continued for another 3 days. The number of cells was measured by repeating the above-described procedure to determine the concentration (IC50) of the III-121C required to inhibit the cell propagation to 50%.
# [2] = tested on: K-ras-NIH 3T3 cells; experiment: Propagation inhibitory effect on K-ras-NIH 3T3 cells; format: cell-based; details: Mus musculus, NIH3T3, 72 h; K-ras-NIH 3T3, 3 days; read-out: IC50, cell propagation
# Experimental: (§2) Normal rat kidney cell, NRK-49 (Dainihon Pharmaceutical K.K.) and normal mouse cell, NIH 3T3 (JCRB Cell Bank); and K-ras NIH 3T3, H-ras NIH 3T3, and N-ras NIH 3T3 (Tokyo University, Medical Science Institute, Japan) which are cell lines that have been transformed with Kirsten sarcoma virus, Harvey sarcoma virus, and neuroblastoma virus, respectively, were incubated at 37° C. in the similar manner.
# as §1
# [3] = tested on: H-ras-NIH 3T3 cells; experiment: Propagation inhibitory effect on H-ras-NIH 3T3 cells; format: cell-based; details: Mus musculus, NIH3T3, 72 h; H-ras-NIH 3T3, 3 days; read-out: IC50, cell propagation
# Experimental: as §2, §1
# [4] = tested on: N-ras-NIH 3T3 cells; experiment: Propagation inhibitory effect on N-ras-NIH 3T3 cells; format: cell-based; details: Mus musculus, NIH3T3, 72 h; N-ras-NIH 3T3, 3 days; read-out: IC50, cell propagation
# Experimental: as §2, §1
# [5] = tested on: NIH 3T3 cells; experiment: Propagation inhibitory effect on NIH 3T3 cells; format: cell-based; details: Mus musculus, NIH3T3, 72 h; NIH 3T3, 3 days; read-out: IC50, cell propagation
# Experimental: as §2, §1
# [6] = tested on: K-ras^ts-NRK cells; experiment: Activity to induce changes in cell morphology, K-ras^ts-NRK cells; format: cell-based, rat; details: 2 days
# Experimental: as §2
# (§3) The effect of the III-121C on various types of cultured cells was evaluated by inoculating each type of cells in wells of 24 wells plastic plate (Costar 3524, manufactured by Costar) at 3×10^4 cells/1 ml medium/well; incubating the plate in an incubator of 5% CO2 for one day; and adding the III-121C sample to the cell cultures to observe the cell morphology for another two days.
# [7] = tested on: K-ras-NRK cells; experiment: Activity to induce changes in cell morphology, K-ras-NRK cells; format: cell-based, rat; details: 0.3 μg/ml, 2 days
# Experimental: as §3
# K-ras-NRK is a transformed cell line, and the cells appear round with its central portion raised.
# [8] = tested on: K-ras-NIH 3T3 cells; experiment: Activity to induce changes in cell morphology, K-ras-NIH 3T3 cells; format: cell-based, mouse; details: 0.3 μg/ml, 2 days
# Experimental: as §2, §3
# (§4) K-ras-NIH 3T3 and H-ras-NIH 3T3 are transformed cell lines, and the cells are elongated with projections or processes on their surface, and grow atop the other. N-ras-NIH 3T3 cells are also elongated and their projections or processes are even longer.
# [9] = tested on: N-ras-NIH 3T3 cells; experiment: Activity to induce changes in cell morphology, N-ras-NIH 3T3 cells; format: cell-based, mouse; details: 0.3 μg/ml, 2 days
# Experimental: as §2, §3, §4
# [10] = tested on: RSV^ts-NRK cells; experiment: Activity to induce changes in cell morphology, RSV^ts-NRK cells; format: cell-based, rat; details: 0.3 μg/ml, 2 days
# Experimental: as §2, §3
# RSV^ts -NRK is a cell line that had been transformed with an src oncogene, and is temperature sensitive as in the case of K-ras^ts -NRK.
# [11] = tested on: H-ras-NIH 3T3 cells; experiment: Effect on production of actin filaments, H-ras-NIH 3T3 cells; format: cell-based, mouse; details: 1 μg/ml, one day
# Experimental: A cover glass with a diameter of 18 mm (manufactured by Matsunami Glass Industry K.K.) that had been washed with 100% ethanol, dried, and sterilized was placed in wells of 12 wells plastic plate, and the cells were inoculated in the wells at 3.0×10^4 /DMEM 1 ml/well. The plate was incubated in an incubator of 5% CO2 for 1 day. To the thus incubated cell culture was added 1 μg/ml of III-121C, and the incubation was continued for another one day. The cell culture was then fixed with paraformaldehyde. The fixed cell culture was reacted with rhodamine pharoidine reagent (Molecular Probe Inc.) to examine the cell morphology by fluorescence microscope with G filter (excitation, 546 nm).
# [12] = Acute toxicity (LD50) on mouse upon intravenous injection; format: in vivo; details: in vivo, intravenous injection
# Experimental: (§5) Toxicity (LD50) on mouse of III-121C upon intravenous injection was measured.
# [13] = tested on: mouse; experiment: as above; format: in vivo; details: compared to conventional alkaloid carcinostatics of plant origin
# Experimental: as §5
# [14] = tested on: K-ras^ts-NRK cells; experiment: Action mechanism: morphology / M phase observation in K-ras^ts-NRK cells; format: cell-based, rat
# Experimental: Before the addition of the III-121C, the cells grew atop the other and had projections or processes on their surface (FIG. 9(a)).
# The procedure as described above was repeated by replacing the III-121C with 0.1 μg/ml of vinblastine, 0.1 μg/ml of vincristine and 0.1 μg/ml of colchicine, which are known as microtubule formation inhibitors.
structure (smiles),measurement,setting,value
CCC12CC(C(=O)OC)=C3Nc4cc5c(cc4C34CCN(CC3OC31)C42)C1C(O5)C(O)C2(CC)CC(C(=O)OC)=C3Nc4c(cc(O)c(OC)c4OC)C34CCN1C42 (stereo not shown) [III-121C],IC50,[1],0.4 µg/mL
same,IC50,[2],0.4 µg/mL
same,IC50,[3],0.48 µg/mL
same,IC50,[4],0.12 µg/mL
same,IC50,[5],0.47 µg/mL
same,change in cell morphology and growth habits,"[6]; 33° C., 0.3 μg/ml",the cells changed their morphology and growth habits to those of normal cells
same,change in cell morphology and growth habits,[6]; 39° C.,the cell morphology and growth habits were the same as the K-ras^ts -NRK cells that had been incubated in the absence of III-121C
same,change in cell morphology and growth habits,[7],"the cells changed their morphology and growth habits to those of normal cells, and became flat with an increased area of contact"
same,change in cell morphology and growth habits,[8],"the cells changed their morphology and growth habits to those of normal NIH 3T3 cells, and became flat with an increased area of contact"
same,change in cell morphology and growth habits,[9],"the cells changed their morphology and growth habits to those of normal NIH 3T3 cells, and became flat with an increased area of contact"
same,change in cell morphology,[10]; 33° C.,changed their cell morphology to have a rounded appearance similar to the morphology of the normal NRK-49 cells
same,change in cell morphology,[10]; 39° C.,changed their cell morphology to have a rounded appearance similar to the morphology of the normal NRK-49 cells
same,actin filaments / cell morphology,[11],morphology of normal cells with longitudinally extending linear actin filaments
same,LD50,[12],24.3 mg/kg
same,acute toxicity in words,[13],weaker toxicity; also recorded: low acute toxicity
same,anti-ras activity,"[14]; 1 μg/ml, 33° C.",has an anti-ras activity
same,change in cell morphology,"[14]; 33° C., 1 μg/ml, after one day",the cells no longer grew atop the other and became flat
same,change in cell morphology and growth habits,"[14]; 33° C., 1 μg/ml, after two days",such change in the cell morphology and growth habits were even more significant
same,cell division inhibitory activity,[14]; compared with microtubule inhibitors,free from the cell division inhibitory activity; also recorded: not associated with the cell division inhibitory action
